Experimental data taken from US10703751B2, “Amino-imidazopyridine derivatives as Janus kinase inhibitors and pharmaceutical use thereof” (LEO Pharma A/S, priority 2017, dated 2020).
Like-named read-outs stand apart in the source and are kept apart here.

Assays:
[1] = tested on: CYP1A2; assay: CYP induction, CYP1A2 mRNA expression; assay type: in vitro ADME; settings: human, mean fold shift compared to vehicle, read-out: Fold shift in mRNA expr. (CYP 1A2); for CYP1A2 mRNA fold change vs vehicle at 0.1 μM: >2-fold indicates induction
Protocol: (§1) Reversible CYP inhibition, time dependent CYP inhibition (TDI) and CYP induction was tested at Cyprotex PLC according to authority guidance.
(§2) Induction of CYP1A2, CYP2B6 and CYP3A4 gene expression can serve as sensitive representative endpoints for activation of aryl hydrocarbon receptor (AhR), […], respectively. Induction of these nuclear receptors was assessed by measuring the increase in mRNA encoding for […], respectively, at relevant concentrations.
(§3) A >2-fold shift indicate CYP Induction.

[2] = tested on: CYP1A2 gene expression; assay: CYP induction, CYP1A2 mRNA expression; assay type: in vitro ADME; settings: Example 3: up to at least a concentration of 10 μM
Protocol: as §1, §2, §3

[3] = target: JAK3 (Homo sapiens (Human), UniProt P52333); assay: JAK3 kinase assay (HTRF); assay type: biochemical
Sequence of JAK3 (P52333 822-1111): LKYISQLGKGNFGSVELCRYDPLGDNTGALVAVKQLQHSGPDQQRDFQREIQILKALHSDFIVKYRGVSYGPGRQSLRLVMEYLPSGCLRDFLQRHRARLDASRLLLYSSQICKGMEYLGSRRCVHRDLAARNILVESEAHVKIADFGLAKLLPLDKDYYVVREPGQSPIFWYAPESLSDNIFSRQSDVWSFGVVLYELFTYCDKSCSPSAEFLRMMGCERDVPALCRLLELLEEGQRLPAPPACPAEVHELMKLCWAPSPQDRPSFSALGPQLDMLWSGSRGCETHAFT
Protocol: (§4) Human baculovirus-expressed Janus kinase (JAK) 1, 2, 3 and tyrosin kinase (TYK) 2 were purchased from Carna Biosciences, Inc (#08-144, -045, -046, -147 resp.). All four purified enzymes contain only the catalytic domain. JAK1 (aa 850-1154) and TYK2 (aa 871-1187) are expressed with an N-terminally fused GST-tag, and JAK2 and JAK3 with an N-terminally fused His-tag. Inhibition of phosphorylation of a synthetic peptide was measured in an HTRF-based assay (CisBio #62TKOPEC). First, 75 nL of test compound solution (100% DMSO) was added to a white shallow 384-well plate (NUNC #264706) using a Labcyte ECHO 550 liquid handler. Thereafter, 1 μL of compound dilution buffer (50 mM HEPES, 0.05% bovine serum albumin) and 2 μL of TK solution (TK substrate-biotin in kinase buffer [1× enzymatic buffer from HTRFKinEASE TK kit, 1 mM DTT]) was added. Then, 5 μL kinase-ATP mix (prepared in kinase buffer) was added to the wells and the plates were incubated at RT for 20 (JAK2, 3 and TYK2) to 40 (JAK1) min. For all four kinases a concentration of ATP that corresponded to the Km for ATP was used. The final concentrations of buffers, substrate, kinase and ATP were: JAK1: 50 mM Hepes buffer pH 7.0, 0.01% BSA, 10 mM MgCl2, 1 mM DTT, 7 μM ATP, 50 nM SEB, 1 μM TK Substrate-Biotin and 5 ng/well JAK1; JAK2: 50 mM Hepes buffer pH 7.0, 0.01% BSA, 5 mM MgCl2, 1 mM DTT, 4 μM ATP, 1 μM TK Substrate-Biotin and 0.1 ng/well JAK2; JAK3: 50 mM Hepes buffer pH 7.0, 0.01% BSA, 5 mM MgCl2, 1 mM DTT, 2 μM ATP, 1 μM TK Substrate-Biotin and 0.3 ng/well JAK3; TYK2: 50 mM Hepes buffer pH 7.0, 0.01% BSA, 5 mM MgCl2, 1 mM DTT, 13 μM ATP, 50 nM SEB, 1 μM TK Substrate-Biotin and 0.8 ng/well TYK2. Thereafter, the kinase reaction was stopped by adding 4 μL detection mix (final concentrations: 50 mM Hepes buffer pH 7.0, 0.01% BSA, 0.8 M KF, 20 mM EDTA, 42 nM Streptavidin-XL665 and 1:400 STK Ab Cryptate) and the plates were incubated overnight in the dark. A PerkinElmer Envision reader was used to quantify the HTRF signal using the following filters; 320 nm excitation filter, 665 nm emission filter and a 615 nm 2nd emission filter. A ratio ((665/615)×10^4) was calculated for each well.

[4] = tested on: CYP; assay: Time dependent CYP inhibition (TDI); assay type: in vitro ADME
Protocol: as §1

[5] = tested on: CYP; assay: Reversible CYP inhibition, overall statement; assay type: in vitro ADME; settings: substrate concentrations up to 50 μM
Protocol: as §1

[6] = target: TYK2 (Homo sapiens (Human), UniProt P29597); assay: TYK2 kinase assay (HTRF); assay type: biochemical
Sequence of TYK2 (P29597 871-1187): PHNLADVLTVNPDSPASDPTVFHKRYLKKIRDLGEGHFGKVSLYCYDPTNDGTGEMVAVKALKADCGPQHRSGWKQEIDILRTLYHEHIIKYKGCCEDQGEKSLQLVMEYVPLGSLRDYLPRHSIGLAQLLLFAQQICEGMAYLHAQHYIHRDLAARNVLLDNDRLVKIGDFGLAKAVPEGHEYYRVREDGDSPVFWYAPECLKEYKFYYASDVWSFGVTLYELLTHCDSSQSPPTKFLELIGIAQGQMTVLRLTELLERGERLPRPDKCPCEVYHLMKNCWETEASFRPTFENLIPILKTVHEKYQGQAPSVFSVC
Protocol: as §4

[7] = tested on: CYP2B6 gene expression; assay: CYP induction, CYP2B6 mRNA expression; assay type: in vitro ADME; settings: Example 3: up to at least a concentration of 10 μM; Example 644: at 10 μM
Protocol: as §1, §2, §3

[8] = tested on: CYP2B6; assay: CYP induction, CYP2B6 mRNA expression; assay type: in vitro ADME; settings: human, mean fold shift compared to vehicle, read-out: Fold shift in mRNA expr. (CYP 2B6)
Protocol: as §1, §2, §3

[9] = tested on: CYP3A4; assay: CYP induction, CYP3A4 mRNA expression; assay type: in vitro ADME; settings: human, mean fold shift compared to vehicle, read-out: Fold shift in mRNA expr. (CYP 3A4)
Protocol: as §1, §2, §3

[10] = target: CYP2B6 (Homo sapiens (Human), UniProt P20813); assay: Reversible CYP inhibition, 2B6; assay type: in vitro ADME; settings: up to 50 μM for Example 3
Sequence of CYP2B6 (Homo sapiens (Human), UniProt P20813) (P20813 whole entry): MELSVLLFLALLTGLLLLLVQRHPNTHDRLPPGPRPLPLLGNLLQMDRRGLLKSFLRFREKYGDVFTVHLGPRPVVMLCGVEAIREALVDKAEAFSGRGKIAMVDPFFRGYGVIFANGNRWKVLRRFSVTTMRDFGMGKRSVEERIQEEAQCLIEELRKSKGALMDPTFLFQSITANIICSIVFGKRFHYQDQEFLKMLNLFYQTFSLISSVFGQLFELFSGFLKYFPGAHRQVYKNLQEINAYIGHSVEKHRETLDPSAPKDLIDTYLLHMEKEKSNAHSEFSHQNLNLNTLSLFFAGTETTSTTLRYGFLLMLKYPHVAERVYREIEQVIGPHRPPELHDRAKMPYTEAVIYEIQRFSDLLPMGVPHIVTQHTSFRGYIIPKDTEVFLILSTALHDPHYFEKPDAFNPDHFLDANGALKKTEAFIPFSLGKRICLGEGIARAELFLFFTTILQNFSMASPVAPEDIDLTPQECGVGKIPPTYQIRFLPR
Protocol: as §1

[11] = target: CYP2C8 (Homo sapiens (Human), UniProt P10632); assay: Reversible CYP inhibition, 2C8; assay type: in vitro ADME; settings: up to 50 μM for Example 3
Sequence of CYP2C8 (P10632 whole entry): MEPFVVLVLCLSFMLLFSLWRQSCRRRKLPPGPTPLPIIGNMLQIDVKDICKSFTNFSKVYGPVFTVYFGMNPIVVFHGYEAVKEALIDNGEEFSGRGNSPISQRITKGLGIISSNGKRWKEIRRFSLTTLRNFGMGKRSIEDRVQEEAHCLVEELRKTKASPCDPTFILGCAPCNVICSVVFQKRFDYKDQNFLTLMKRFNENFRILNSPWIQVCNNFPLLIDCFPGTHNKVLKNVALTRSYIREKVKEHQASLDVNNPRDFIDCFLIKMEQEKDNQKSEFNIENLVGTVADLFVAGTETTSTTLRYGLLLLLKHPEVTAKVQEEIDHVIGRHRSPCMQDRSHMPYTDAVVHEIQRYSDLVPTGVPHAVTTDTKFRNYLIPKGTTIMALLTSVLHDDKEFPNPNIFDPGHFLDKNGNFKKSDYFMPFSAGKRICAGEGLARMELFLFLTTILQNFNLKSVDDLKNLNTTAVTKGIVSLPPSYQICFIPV
Protocol: as §1

Compound	CYP1A2 mRNA fold change vs vehicle at 0.1 μM [1]	CYP1A2 mRNA fold change vs vehicle at 1 μM [1]	CYP1A2 mRNA fold change vs vehicle at 10 μM [1]	CYP1A2 induction (in words) [2]	EC50 ([3]; ATP at Km (2 μM))	time dependent CYP inhibition (in words) [4]	CYP inhibition (in words) [5]	EC50 ([6]; ATP at Km (13 μM))	CYP2B6 induction (in words) [7]	fold change in CYP2B6 mRNA expression vs vehicle at 0.1 μM [8]	fold change in CYP2B6 mRNA expression vs vehicle at 1 μM [8]	fold change in CYP2B6 mRNA expression vs vehicle at 10 μM [8]	CYP3A4 mRNA fold induction vs vehicle at 5 μM [9]	CYP3A4 mRNA fold induction vs vehicle at 20 μM [9]	CYP3A4 mRNA fold induction vs vehicle at 50 μM [9]	IC50 [10]	IC50 [11]	EC50 [3]	EC50 [6]
CNc1cc2c(cn1)nc([C@@H](C)O)n2[C@H]1CC[C@H](CC#N)CC1 [Example 3, trans-2-[4-[2-[(1R)-1-Hydroxyethyl]-6-(methylamino)imidazo[4,5-c]pyridin-1-yl]cyclohexyl]acetonitrile]	0.8	0.7	0.8	does not cause	1700 nM	No time dependent CYP inhibition was indicated	no CYP inhibition	32 nM	does not cause	1.1	1.5	1.7	1.2	1.5	2	> 50000 nM	> 50000 nM	–	–
C[C@@H](O)c1nc2cnc3[nH]ccc3c2n1[C@H]1CC[C@H](CC#N)CC1 [Example 644 of WO2011086053]	–	–	–	–	13.1 nM	–	–	3.32 nM	CYP2B6 induction at a concentration of 10 μM	–	–	–	–	–	–	–	–	–	–
C[C@@H](O)c1nc2cnc3[nH]ccc3c2n1[C@H]1CC[C@H](C#N)CC1 [Example 641 of WO2011086053]	0.9	0.8	0.9	–	–	–	–	–	–	1	1.3	1.4	1.8	2.5	4	–	–	739 nM	115 nM
